From US7713994B2 (Wyeth LLC, priority 2005, dated 2010) come the findings set out here.

One series has as its target T1, cyclin B/CDK1 enzyme (Homo sapiens, UniProt P06493).
T1 construct: purchased New England BioLabs; host or cells: Sf9 insect cells, recombinant baculovirus
Put plainly: CDK1 ELISA kinase assay (phospho-Rb ser 795 detection). The series is classed as biochemical. The settings on record: In Vitro Enzyme Assays, read-out: CDK1 IC50. An outline of the steps: (§1)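 GST-Rb C-terminal fragment coated on plates; partially purified Sf9-expressed cyclin D1/CDK4, cyclin E/CDK2 or cyclin B/CDK1 with 200 μM ATP, pH 7.5 HEPES/MgCl2 buffer, 1 h at 30 °C; screen compound final 10 μg/ml. Phospho-Rb Ser795 detected by antibody ELISA (TMB, A450); % of control, IC50 from background-subtracted inhibition curves.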
(In an ELISA, binding on a coated surface is turned into a signal by an enzyme label.)

Another series has as its system HCT-116. Description: Cytotoxicity assay (SRB), HCT-116. The series is classed as cell-based. The settings on record: Homo sapiens, HCT-116, 72 h, HCT116 cells, SRB, three days; read-out: In Vitro Cellular Activity IC50 HCT116. An outline of the steps:
(§2)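 Cells grown in RPMI 1640 with 5% FBS were treated with compound for three days (HCT-116, LoVo, MCF-7) or six days (BT474). Viable cell mass was quantified by sulforhodamine B staining of TCA-fixed protein and read at 540 nm.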

The test system of a further series is MCF-7. Put plainly: Cytotoxicity assay (SRB), MCF-7. The format is cell-based. To be noted: Homo sapiens, MCF7, 72 h, MCF-7 cells, SRB, three days; read-out: In Vitro Cellular Activity IC50 MCF-7. The essentials: as §2
For the next series, the target named is T2, cyclin D1/cdk 4 enzyme (Homo sapiens, UniProt P11802).
T2 construct: made in house; host or cells: Sf9 insect cells, recombinant baculovirus
Put plainly: CDK4 ELISA kinase assay (phospho-Rb ser 795 detection). The format is biochemical. To be noted: In Vitro Enzyme Assays, 200 μM ATP, read-out: CDK4 IC50. The essentials: as §1

The subject of a further series is LoVo. Description: Cytotoxicity assay (SRB), LoVo. The series is classed as cell-based. To be noted: Homo sapiens, LoVo, 72 h, LoVo cells, SRB, three days; read-out: In Vitro Cellular Activity IC50 LOVO. The essentials: as §2
For the next series, the target named is T3, cyclin E/CDK2 enzyme (Homo sapiens, UniProt P24941).
T3 construct: made in house; host or cells: Sf9 insect cells, recombinant baculovirus
Put plainly: CDK2 ELISA kinase assay (phospho-Rb ser 795 detection). The format is biochemical. To be noted: In Vitro Enzyme Assays, read-out: CDK2 IC50. An outline of the steps:
as §1

The next series concerns BT474. Put plainly: Cytotoxicity assay (SRB), BT474. The series is classed as cell-based. To be noted: Homo sapiens, BT-474, 144 h, BT474 cells, SRB, 6 days; read-out: In Vitro Cellular Activity IC50 BT474. An outline of the steps: as §2

The structures appear in SMILES notation.

By melting point is commonly meant the temperature of the solid-liquid transition. The IC50 is the point on the concentration scale where inhibition reaches its midpoint.

T2 sequence (P11802 whole entry, species assumed): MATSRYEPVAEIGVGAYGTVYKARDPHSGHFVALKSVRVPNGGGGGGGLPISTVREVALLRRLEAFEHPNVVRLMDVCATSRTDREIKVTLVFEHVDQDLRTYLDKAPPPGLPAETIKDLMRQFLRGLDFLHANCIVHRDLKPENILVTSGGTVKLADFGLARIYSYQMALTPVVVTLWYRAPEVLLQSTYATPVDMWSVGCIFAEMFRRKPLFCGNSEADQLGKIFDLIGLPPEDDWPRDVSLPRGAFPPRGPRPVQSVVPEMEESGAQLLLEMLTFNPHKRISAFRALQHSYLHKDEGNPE
T2 sequence (P24385 whole entry partner, species assumed): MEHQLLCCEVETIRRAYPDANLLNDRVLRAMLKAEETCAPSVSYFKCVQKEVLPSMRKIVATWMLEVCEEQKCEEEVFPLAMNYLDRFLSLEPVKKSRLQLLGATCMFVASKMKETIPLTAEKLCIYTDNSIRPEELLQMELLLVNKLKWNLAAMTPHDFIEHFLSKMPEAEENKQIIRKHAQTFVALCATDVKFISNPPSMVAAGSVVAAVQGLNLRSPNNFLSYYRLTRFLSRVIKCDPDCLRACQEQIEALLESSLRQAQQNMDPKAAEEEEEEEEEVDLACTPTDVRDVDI
T1 sequence (P06493 whole entry): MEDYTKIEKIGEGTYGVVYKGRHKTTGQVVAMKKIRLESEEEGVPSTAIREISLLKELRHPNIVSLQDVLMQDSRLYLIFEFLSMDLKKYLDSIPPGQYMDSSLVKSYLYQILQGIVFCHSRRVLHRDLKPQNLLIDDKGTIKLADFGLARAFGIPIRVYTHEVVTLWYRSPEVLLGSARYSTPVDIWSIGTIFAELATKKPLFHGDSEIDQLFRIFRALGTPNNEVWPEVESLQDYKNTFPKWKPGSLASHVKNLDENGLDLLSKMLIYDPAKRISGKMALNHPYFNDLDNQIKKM
T1 sequence (P14635 whole entry partner): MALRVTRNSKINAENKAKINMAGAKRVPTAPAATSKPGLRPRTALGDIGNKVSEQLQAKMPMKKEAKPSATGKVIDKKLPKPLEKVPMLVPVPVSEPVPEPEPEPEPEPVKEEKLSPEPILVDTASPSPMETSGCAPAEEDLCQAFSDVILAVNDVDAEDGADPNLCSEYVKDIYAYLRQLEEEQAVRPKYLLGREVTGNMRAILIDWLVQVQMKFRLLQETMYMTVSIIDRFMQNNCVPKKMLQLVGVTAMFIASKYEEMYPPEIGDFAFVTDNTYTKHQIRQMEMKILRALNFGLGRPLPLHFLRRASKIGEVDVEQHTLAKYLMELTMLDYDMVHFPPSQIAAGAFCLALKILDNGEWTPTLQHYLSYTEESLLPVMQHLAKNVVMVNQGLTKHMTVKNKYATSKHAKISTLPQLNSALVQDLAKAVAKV

`CN1CCC(c2ccc(N/C=C3\C(=O)NC(=O)c4ccc(Br)cc43)cc2)CC1` [Example 344, (4Z)-6-Bromo-4-({[4-(1-methylpiperidin-4-yl)phenyl]amino}methylene)isoquinoline-1,3(2H,4H)-dione] yielded a melting point of 217 to 218 °C. For the same molecule, the IC50 at cyclin B/CDK1 enzyme is > 50000 nM. For the same molecule, in the series on HCT-116, the IC50 came to 2600 nM. In addition, the IC50 in the series on MCF-7 was 1600 nM. The IC50 on cyclin D1/cdk 4 enzyme worked out at 460 nM. Besides, the IC50 in the series with LoVo stood at 2800 nM. The IC50 at cyclin E/CDK2 enzyme was > 50000 nM. The IC50 in the series with BT474 is 4200 nM.

As to `COc1ccc(-c2ccc3c(c2)/C(=C/Nc2ccc(N4C[C@@H](C)N[C@@H](C)C4)c(F)c2)C(=O)NC3=O)cc1` [Example 345, (4Z)-4-[({4-[(3R,5S)-3,5-Dimethylpiperazin-1-yl]-3-fluorophenyl}amino)methylene]-6-(4-methoxyphenyl)isoquinoline-1,3(2H,4H)-dione], the melting point was in the range of 227 to 228 °C. Further, on cyclin B/CDK1 enzyme, the half-maximal inhibitory concentration (IC50) worked out at 28300 nM. Moreover, in the series on HCT-116, the half-inhibitory concentration (IC50) turned out to be 940 nM. Further, the IC50 in the series on MCF-7 was 1400 nM. For the same molecule, at cyclin D1/cdk 4 enzyme, the 50% inhibitory concentration (IC50) amounted to 15400 nM. The IC50 with LoVo came out at 1200 nM. At cyclin E/CDK2 enzyme, the IC50 was determined as 43400 nM. Besides, the IC50 in the series on BT474 stood at 910 nM.

As to `C[C@@H]1CN(c2cncc(N/C=C3\C(=O)NC(=O)c4ccc(-c5ccoc5)cc43)c2)C[C@H](C)N1` [Example 346, (4Z)-4-[({5-[(3R,5S)-3,5-Dimethylpiperazin-1-yl]pyridin-3-yl}amino)methylene]-6-(3-furyl)isoquinoline-1,3(2H,4H)-dione], the melting point was in the range of 175 to 176 °C. Also, the IC50 at cyclin B/CDK1 enzyme is > 50000 nM. Moreover, the IC50 in the series on HCT-116 came out at 1900 nM. In addition, the IC50 in the series on MCF-7 was 1400 nM. Besides, the IC50 on cyclin D1/cdk 4 enzyme was 180 nM. For the same molecule, in the series with LoVo, the IC50 is 2100 nM. Further, on cyclin E/CDK2 enzyme, the IC50 is > 50000 nM. The IC50 in the series on BT474 was determined as 960 nM.

In turn, `CN(C)c1ccc(CN/C=C2\C(=O)NC(=O)c3ccc(I)cc32)cc1O` [Example 347, (4Z)-4-({[4-(Dimethylamino)-3-hydroxybenzyl]amino}methylene)-6-iodoisoquinoline-1,3(2H,4H)-dione] returned a melting point of 198 to 199 °C. The IC50 at cyclin B/CDK1 enzyme was 6700 nM. The IC50 in the series on HCT-116 amounted to 3100 nM. The IC50 with MCF-7 is 2200 nM. Besides, the IC50 at cyclin D1/cdk 4 enzyme is 5 nM. The IC50 with LoVo came to 2700 nM. In addition, on cyclin E/CDK2 enzyme, the IC50 was 1500 nM. Moreover, the IC50 with BT474 was found to be 2400 nM.

As for `CC(=O)N1CCC(c2ccc(N/C=C3\C(=O)NC(=O)c4ccc(-c5ccoc5)cc43)cc2)CC1` [Example 351, (4Z)-4-({[4-(1-Acetylpiperidin-4-yl)phenyl]amino}methylene)-6-(3-furyl)isoquinoline-1,3(2H,4H)-dione], the melting point fell in the range of 178 to 179 °C. Moreover, the IC50 at cyclin B/CDK1 enzyme is > 50000 nM. In the series on HCT-116, the IC50 amounted to 3000 nM. Moreover, the IC50 in the series with MCF-7 is 2100 nM. The IC50 at cyclin D1/cdk 4 enzyme turned out to be 130 nM. In the series with LoVo, the IC50 is 2700 nM. The IC50 at cyclin E/CDK2 enzyme is > 50000 nM. In addition, in the series with BT474, the IC50 turned out to be 1100 nM.

Take `Cc1cc(N/C=C2\C(=O)NC(=O)c3ccc(-c4ccoc4)cc32)cnc1N1C[C@@H](C)N[C@@H](C)C1` [Example 355, (4Z)-4-[({6-[(3R,5S)-3,5-Dimethylpiperazin-1-yl]-5-methylpyridin-3-yl}amino)methylene]-6-(3-furyl)isoquinoline-1,3(2H,4H)-dione]: the melting point is 195 to 196 °C. Moreover, on cyclin B/CDK1 enzyme, the IC50 is > 50000 nM. Also, the IC50 in the series with HCT-116 is 1200 nM. In addition, the IC50 in the series on MCF-7 was determined as 1400 nM. Besides, on cyclin D1/cdk 4 enzyme, the IC50 came to 360 nM. Moreover, in the series with LoVo, the IC50 is 2000 nM. In addition, the IC50 on cyclin E/CDK2 enzyme was > 50000 nM. The IC50 in the series with BT474 is 1700 nM.

The molecule `Cc1cc(N/C=C2\C(=O)NC(=O)c3ccc(-c4ccsc4)cc32)cnc1N1C[C@@H](C)N[C@@H](C)C1` [Example 356, (4Z)-4-[({6-[(3R,5S)-3,5-Dimethylpiperazin-1-yl]-5-methylpyridin-3-yl}amino)methylene]-6-thien-3-ylisoquinoline-1,3(2H,4H)-dione] had a melting point of 219 to 220 °C. Besides, the IC50 at cyclin B/CDK1 enzyme was > 50000 nM. Besides, in the series on HCT-116, the IC50 was 1600 nM. Moreover, the IC50 in the series on MCF-7 turned out to be 2700 nM. Also, the IC50 on cyclin D1/cdk 4 enzyme was found to be 390 nM. Further, the IC50 in the series with LoVo was 2800 nM. For the same molecule, the IC50 at cyclin E/CDK2 enzyme is > 50000 nM. Further, in the series on BT474, the IC50 is 3000 nM.

`COc1ccc(-c2ccc3c(c2)/C(=C/Nc2cnc(N4C[C@@H](C)N[C@@H](C)C4)c(C)c2)C(=O)NC3=O)cc1` [Example 357, (4Z)-4-[({6-[(3R,5S)-3,5-Dimethylpiperazin-1-yl]-5-methylpyridin-3-yl}amino)methylene]-6-(4-methoxyphenyl)isoquinoline-1,3(2H,4H)-dione] showed a melting point of 213 to 214 °C. Moreover, the IC50 on cyclin B/CDK1 enzyme was > 50000 nM. The IC50 with HCT-116 came to 1100 nM. In the series on MCF-7, the IC50 stood at 1600 nM. For the same molecule, the IC50 on cyclin D1/cdk 4 enzyme was 31000 nM. For the same molecule, the IC50 in the series on LoVo came out at 2800 nM. Besides, the IC50 on cyclin E/CDK2 enzyme is > 50000 nM. Besides, in the series with BT474, the IC50 is 2500 nM.

`COc1ccc(-c2ccc3c(c2)/C(=C/Nc2ccc(CN4CCCC4C)cc2)C(=O)NC3=O)cc1` (stereo not drawn) [Example 358, (4Z)-6-(4-Methoxyphenyl)-4-[({4-[(2-methylpyrrolidin-1-yl)methyl]phenyl}amino)-methylene]-isoquinoline-1,3(2H,4H)-dione] returned a melting point of 232 to 233 °C. In addition, on cyclin B/CDK1 enzyme, the IC50 is 35500 nM. Besides, the IC50 in the series with HCT-116 was 1400 nM. Further, in the series on MCF-7, the IC50 was found to be 2500 nM. Besides, at cyclin D1/cdk 4 enzyme, the IC50 was determined as 310 nM. In addition, the IC50 in the series on LoVo was 3000 nM. Further, at cyclin E/CDK2 enzyme, the IC50 turned out to be 43400 nM. Moreover, the IC50 in the series on BT474 was 2600 nM.

`CN(C)C/C=C/C(=O)Nc1ccc(CN/C=C2\C(=O)NC(=O)c3ccc(I)cc32)cc1O` [Example 359, (2E)-4-(Dimethylamino)-N-[2-hydroxy-4-({[(Z)-(6-iodo-1,3-dioxo-2,3-dihydroisoquinolin-4(1H)-ylidene)methyl]amino}methyl)phenyl]but-2-enamide] registered a melting point of 185 to 186 °C. The IC50 on cyclin B/CDK1 enzyme was 1500 nM. For the same molecule, the IC50 in the series on HCT-116 is 230 nM. The IC50 with MCF-7 was 400 nM. Further, on cyclin D1/cdk 4 enzyme, the IC50 worked out at 20 nM. For the same molecule, in the series on LoVo, the IC50 came to 340 nM. Moreover, the IC50 on cyclin E/CDK2 enzyme worked out at 260 nM. In the series on BT474, the IC50 was 120 nM.

`CCCNc1ccc(CN/C=C2\C(=O)NC(=O)c3ccc(I)cc32)cc1O` [Example 366, (4Z)-4-({[3-Hydroxy-4-(propylamino)benzyl]amino}methylene)-6-iodoisoquinoline-1,3(2H,4H)-dione] returned a melting point of 236 to 237 °C. Further, the IC50 on cyclin B/CDK1 enzyme was found to be 31700 nM. For the same molecule, in the series on HCT-116, the IC50 came to 3300 nM. Further, the concentration for half-maximal inhibition (IC50) with MCF-7 came to 6900 nM. In addition, on cyclin D1/cdk 4 enzyme, the IC50 was 120 nM. Moreover, the IC50 in the series with LoVo came out at 2800 nM. The IC50 at cyclin E/CDK2 enzyme came to 1900 nM. Moreover, in the series with BT474, the IC50 came out at 3800 nM.

`O=C1NC(=O)c2ccc(Br)cc2/C1=C/Nc1cc(F)c(N2CCN3CCC[C@H]3C2)c(F)c1` [Example 370, (4Z)-6-Bromo-4-[({3,5-difluoro-4-[(8aS)-hexahydropyrrolo[1,2-a]pyrazin-2(1H)-yl]phenyl}amino)methylene]isoquinoline-1,3(2H,4H)-dione]: the melting point was in the range of 190 to 191 °C. The IC50 at cyclin B/CDK1 enzyme was found to be 42500 nM. Further, in the series with HCT-116, the IC50 was found to be 4200 nM. Besides, the IC50 in the series on MCF-7 was found to be 6700 nM. On cyclin D1/cdk 4 enzyme, the IC50 came to 21100 nM. Moreover, the IC50 with LoVo worked out at 6400 nM. Also, at cyclin E/CDK2 enzyme, the IC50 is > 50000 nM. Besides, the IC50 in the series on BT474 stood at 6300 nM.
